“Also recorded” adds a separate entry of the source. Read-outs that look alike come from different tables or passages of the source.
Experiments:
[1] = tested on: mouse adult neural stem cells; conditions: for cell protection and differentiation of NSC under amyloid-beta cytotoxicity: 10 μM amyloid-beta, second day of culture; for concentration at which differentiation-inducing effect starts: no amyloid-beta, day 2 of culture
Method: NSC were isolated from the subventricular zone of week 8 mouse brain, treated with 20 ng/ml human basic fibroblast growth factor (bFGF) and 20 ng/ml human epidermal growth factor (EGF) in an IPM medium, and cultured as a suspension in 24-well plates for 7 days.
Two days before the isolation of single cells, 6-well plates were prepared by treating the wells with 10 μg/ml poly-L-ornithine solution and incubating overnight at room temperature for coating. The next day, poly-L-ornithine solution was removed and the plates were washed 3 times with sterilized triple distilled water. […] The culture solution used is N2 culture medium (supplemented with 20 ng/ml bFGF and 20 ng/ml EGF). Right before seeding, the coating solution was suctioned out, and the single cells were uniformly seeded into the culture plate before the plate dried up. Cells were allowed to attach to the plates for about one minute, and after checking that cells were sufficiently attached, an additional 1.5 ml of culture medium (N2 culture medium with 20 ng/ml bFGF and 20 ng/ml EGF) was added to the cells and cultured in a 37° C. incubator for 24 hours.
Wells not treated with amyloid-beta were left to use as negative controls.
Gibco's (Waltham, Mass.) human Aβ (1-42) was purchased to use for the amyloid-beta (Aβ), and the following process was followed to create oligomers. […] Then, it was dried for 10 minutes in a speed Vac, after which DMSO (Sigma, cat #.D2650) was added to bring the concentration to 5 mM and then lightly vortexed at room temperature for 10 minutes. […] The solution was incubated at 4° C. for 24 hours and then added into the cultured cells.
The NCSs were cultured with the daily addition of EGF, bFGF, amyloid-beta, and test materials for 4 days.

[2] = tested on: mouse embryonic neural stem cells; test: Morphology analysis (phase-contrast) of NSC differentiation in mouse embryonic neural stem cells; type: cell-based; conditions: 1.0 μM and 10 μM; day 2 of culture
Method: Neural stem cells were isolated from the brain of a day 14.5 mouse embryo, treated with 10 ng/ml human basic fibroblast growth factor (bFGF) (Peprotech, Princeton, NG, cat #0.100-18B) and 20 ng/ml human epidermal growth factor (EGF) (Peprotech, cat #. AF-100-15) in a N2 culture medium, and cultured in suspension in a 25 cm2 flask (Nunc, Pittsburgh, Pa.) for 4 days. Formation of neurospheres was observed after 2 days.
In order to isolate single cells, 6-well plates were prepared the day before by treating the wells with 15 μg/ml poly-L-ornithine (Sigma, St. Louis, Mo., cat #.P2533) solution and incubating overnight at 37° C. for coating. The day of the single cell isolation, poly-L-ornithine solution was removed, the plates were washed with PBS three times, and 10 μg/ml fibronectin (Gibco, Waltham, Mass., cat #. 33016015) solution was added and incubated at 37° C. for 2 hours for coating.
Various concentrations of the compound of [Formula 1]
FIG. 10b is the analysis of Tuj1 mRNA expression in the cells of each group.

[3] = tested on: mouse embryonic neural stem cells; test: Immunocytochemistry analysis (Tuj1/DAPI staining); type: cell-based; conditions: 4 days
Method: Tuj1 (Neuron specific class III beta-tubulin) is a neuron specific marker protein, which was conjugated to rhodamine to show fluorescent red, while DAPI binds to the cell DNA and stains the cell nuclei fluorescent blue. […] The medium was removed and the cells were washed with PBS. After fixing with 10% formaldehyde (Sigma cat #. HT501128) at room temperature for 10 minutes, they were washed again with PBS. They were permeabilized with 0.2% Triton X-100 (Sigma, cat #. 93443) at room temperature for 15 minutes, washed with PBS, and incubated with 10% BSA (Sigma, cat #. A2153)+1% normal goat serum (Vector lab, Burlingame, Calif., cat #. S1000) at room temperature for 1 hour. […] The solution was removed, washed with PBS, and incubated at room temperature for 1 hour with the secondary antibody (rhodamine-conjugated antibody) diluted in 1% BSA+1% normal goat serum at a ratio of 1:200. Then, the cells were washed with PBS, incubated with 5 μg/ml DAPI (Sigma, cat #. D9542) for 5 minutes, washed with PBS again, and mounted on a slide glass for analysis with a fluorescent microscope.

[4] = cited from earlier work
[5] = biological target: MEK1 (Homo sapiens (Human), UniProt Q02750); conditions: cited from earlier work
MEK1, sequence (Q02750 whole entry, species assumed): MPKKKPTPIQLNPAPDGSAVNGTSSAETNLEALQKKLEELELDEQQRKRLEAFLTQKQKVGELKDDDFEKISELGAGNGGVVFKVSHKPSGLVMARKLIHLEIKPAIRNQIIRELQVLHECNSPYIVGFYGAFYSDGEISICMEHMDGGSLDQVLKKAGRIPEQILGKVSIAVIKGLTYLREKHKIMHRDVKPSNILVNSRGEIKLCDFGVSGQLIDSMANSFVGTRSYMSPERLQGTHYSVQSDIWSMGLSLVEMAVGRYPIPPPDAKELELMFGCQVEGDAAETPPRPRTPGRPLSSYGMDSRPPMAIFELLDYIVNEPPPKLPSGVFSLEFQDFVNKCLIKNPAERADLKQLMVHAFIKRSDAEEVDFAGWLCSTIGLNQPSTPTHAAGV

## COc1cc(F)c(F)c(Nc2ccc(I)cc2F)c1NS(=O)(=O)C1(C[C@H](O)CO)CC1 [refametinib]
[1]; compound 1 μM
  cell protection and differentiation of NSC under amyloid-beta cytotoxicity: provided cell protection and induced the differentiation of NSC

## O=C(NOCC1CC1)c1ccc(F)c(F)c1Nc1ccc(I)cc1Cl [PD184352]
[2]
  cell death: all the cells died

## O=C(NC[C@H](O)CO)c1ccncc1Nc1ccc(I)cc1F [AS703026, pimasertib]
[1]; compound 10 μM
  cell protection and differentiation of NSC under amyloid-beta cytotoxicity: provided cell protection and induced the differentiation of NSC
[1]; trametinib 10 nM and 100 nM, AS703026 10 μM, 4 days
  cell toxicity: did not elicit cell toxicity
[3]; 0.1 μM
  neuron differentiation (Tuj1 staining): no differentiation was observed
[3]; 1.0 μM
  neuron differentiation (Tuj1 staining): neuron differentiation occurs at this concentration, albeit only to a marginal extent
[4]
  expression of phosphorylated ERK in the mouse brain: decrease the expression of phosphorylated ERK
[4]; mouse
  crossing of the blood brain barrier: effectively cross the BBB

## O=C(NOCC(O)CO)c1cc(Br)c(F)c(F)c1Nc1ccc(I)cc1F (stereo not drawn) [PD318088]
[1]; compound 1 μM
  cell protection and differentiation of NSC under amyloid-beta cytotoxicity: provided cell protection and induced the differentiation of NSC

## N#CC(=C(/N)Sc1ccccc1N)/C(C#N)=C(\N)Sc1ccccc1N [U0126]
[1]; 0.1 μM and 1.0 μM, day 2
  cell proliferation: inhibition of cell proliferation
[1]; 2.5 μM, day 2
  differentiation-inducing effect (morphology): did not show any clear differentiation-inducing effect
[1]; 10 μM, day 2
  cell cytotoxicity: cell cytotoxicity
[1]; all concentrations tested, day 2
  NSC differentiation-inducing effect (morphology): failed to show any NSC differentiation-inducing effect

## O=C(NOC[C@H](O)CO)c1ccc(F)c(F)c1Nc1ccc(I)cc1F [PD0325901]
[1]; 0.1 μM to 10 μM, day 2
  differentiation-inducing effect (morphology): excellent inducing effect
[1]
  concentration at which differentiation-inducing effect starts: 0.1 µM

## CC12CC3CC(C)(C1)CC(N)(C3)C2 [memantine]
[1]; 5 μM and 10 μM, 4 days
  cell death of neural stem cells: death of neural stem cells
  differentiation of NSC into neurons (morphology): not observed

## Cc1cc(C(=O)NOCCO)c(Nc2ccc(I)cc2F)n(C)c1=O [AZD8330]
[1]; compound 1 μM
  cell protection and differentiation of NSC under amyloid-beta cytotoxicity: provided cell protection and induced the differentiation of NSC

## BI847325
[1]; 1.0 nM and 10 nM, day 2
  cell proliferation: somewhat inhibited
  differentiation-inducing effect (morphology): not observed
[1]; 0.1 μM, day 2
  differentiation-inducing effect (morphology): only a weak differentiation-inducing effect

## O=C(c1ccc(F)c(F)c1Nc1ccc(I)cc1F)N1CC(O)([C@@H]2CCCCN2)C1 [cobimetinib]
[1]; 10 μM, regardless of whether amyloid-beta was added, second day
  differentiation of adult NSC (morphology): did not induce the differentiation of adult NSC; also recorded: does not induce the differentiation of mouse adult neural stem cells
[5]
  selectivity toward MEK1 compared with MEK2: ≥ 100 ×

## CNS(=O)(=O)Nc1nccc(Cc2c(C)c3ccc(Oc4ncccn4)cc3oc2=O)c1F [RO5126766]
[1]
  concentration at which differentiation-inducing effect starts: 1.0 µM

From patent US11701360B2, “Composition for inducing differentiation and protection of neural stem cells and method for inducing neuro-regeneration using the same composition” (GENUV Inc., priority 2017, dated 2023)
